Like-named read-outs stand apart in the source and are kept apart here.

The source of these data is patent US10821115B2, “Compounds that inhibit Mcl-1 protein” (priority 2017, dated 2020).

Test [1] addresses recombinant human Mcl-1 (residues 171-327) / Bim interaction (Homo sapiens (Human), UniProt Q07820). The test can be described thus: biochemical. In kind it is binding. The following applies: read-out: Mcl-1 HTRF IC50. For orientation: Time-resolved FRET reads energy transfer from a long-lived donor to a nearby acceptor.
Protocol: The inhibition of the Mcl-1/Bim interaction was measured using a time-resolved fluorescence resonance energy transfer (TR-FRET) assay. […] The TR-FRET assay was conducted in a 384-well white OptiPlate™ (PerkinElmer, Waltham, Mass.) in a total volume of 40 μL. The reaction mixture contained 0.1 nM Mcl-1(171-327), 0.05 nM biotin-Bim (51-76), 0.05 nM LANCE® Eu-W1024 Anti-6×His (PerkinElmer), 0.072 nM Streptavidin-Xlent (Cisbio, Bedford, Mass.), and serially diluted test compounds in the binding buffer of 20 mM Hepes, pH 7.5, 150 mM NaCl, 0.016 mM Brij®35, and 1 mM dithiothreitol. Test compounds were pre-incubated with Mcl-1(171-327) and biotin-Bim (51-76) for 60 min before addition of the detection mixture (LANCE® Eu-W1024 Anti-6×His and Streptavidin-Xlent). The reaction plates were further incubated overnight and then were read on an Envision® multimode reader (PerkinElmer). Fluorescence signals were measured at 620 nm (40-nm bandwidth) and 665 nm (7.5-nm bandwidth) with a 60 is delay after excitation at 320 nm (75-nm bandwidth). The signal ratio at 665/620 nm corresponded to the Mcl-1/Bim interaction and was used in all data analyses. The IC50 values of test compounds were determined from duplicate data by analyzing competition curves using a four-parameter sigmoidal model in GraphPad Prism (GraphPad Software, San Diego, Calif.) or in Genedata Screener® (Genedata, Basel, Switzerland).
Test [2] has as its system human multiple myeloma cell line, OPM-2. The test can be described thus: Cell viability assay (OPM-2 10 FBS), CellTiter-Glo. Format: cell-based. The procedure, abridged:
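Serially diluted test compounds are incubated 16 h with cells (3000/well) in RPMI 1640 supplemented with 10% FBS. Viability is then measured by luminescence and IC50 calculated by 4-parameter logistic fit.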
Background: Cellular ATP, detected with luciferase, serves as a proxy for viable cell number.

The mark [3] stands for this setting: TR-FRET, Mcl-1(171-327) / biotin-Bim (51-76).
Setting [4] is: Homo sapiens, OPM-2, 16 h, read-out: OPM-2 10% FBS IC50 IP, OPM-2 cells, 10% FBS, 16 h, CellTiter-Glo.
Setting [5] is: read-out: OPM-2 10% FBS IC50 IP, OPM-2 cells, 10% FBS, 16 h, CellTiter-Glo.
Where [6] appears, read: 0.1 nM Mcl-1(171-327), 0.05 nM biotin-Bim (51-76).
The mark [7] stands for this setting: Homo sapiens, OPM-2, 16 h, read-out: OPM-2 10% FBS IC50 IP, OPM-2 cells, 10% FBS, 16 h incubation.

Sequence of recombinant human Mcl-1 (residues 171-327) / Bim interaction (Q07820 171-327): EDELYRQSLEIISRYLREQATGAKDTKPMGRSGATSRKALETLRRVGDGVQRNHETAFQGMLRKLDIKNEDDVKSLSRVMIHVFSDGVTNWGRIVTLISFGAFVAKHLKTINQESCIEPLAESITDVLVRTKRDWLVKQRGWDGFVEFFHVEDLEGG

For the compound `C[C@@H]1[C@@H](C)C/C=C/[C@]2(CCCO2)[C@@H]2CC[C@H]2CN2C[C@@]3(CCCc4cc(Cl)ccc43)COc3ccc(cc32)C(=O)NS1(=O)=O` (stereo in doubt) [Example 100132], the 50% inhibitory concentration (IC50) was 0.543 nM in test [1] (setting [3]) and 675 nM in test [2] (setting [4]).
For the compound `CC[C@@H]1CC/C=C/[C@](O)(C(F)(F)F)[C@@H]2CC[C@H]2CN2C[C@@]3(CCCc4cc(Cl)ccc43)COc3ccc(cc32)C(=O)NS1(=O)=O` [Example 100047, (1S,3′R,6′R,7′R,8′E,12′R)-6-chloro-12′-ethyl-7′-hydroxy-7′-(trifluoromethyl)-3,4-dihydro-2H,15′H-spiro[naphthalene-1,22′-[20]oxa[13]thia[1,14]diazatetracyclo [14.7.2.0~3,6~.0~19,24~]pentacosa[8,16,18,24]tetraen]-15′-one 13′,13′-dioxide], the results for the 50% inhibitory concentration (IC50) in test [1] (setting [3]) and in test [2] (setting [5]) were 5.15 nM and 2540 nM, respectively.
As to `C[C@@H]1[C@@H](C)CCC[C@@]2(COCCN2)[C@@H]2CC[C@H]2CN2C[C@@]3(CCCc4cc(Cl)ccc43)COc3ccc(cc32)C(=O)NS1(=O)=O` [Example 100269, (1S,3′R,6′R,7′S,11′S,12′R)-6-chloro-11′,12′-dimethyl-3,4-dihydro-2H,15′H-dispiro[naphthalene-1,22′-[20]oxa[13]thia[1,14]diazatetracyclo [14.7.2.0~3,6~.0~19,24~]pentacosa[16,18,24]triene-7′,3″-[1,4]oxazinan]-15′-one 13′,13′-dioxide], the results for the IC50 in test [1] (setting [3]) and in test [2] (setting [4]) were 0.908 nM and 1230 nM, respectively.
For `Cc1ncc([C@]2(O)/C=C/C[C@H](C)[C@@H](C)S(=O)(=O)NC(=O)c3ccc4c(c3)N(C[C@@H]3CC[C@H]32)C[C@@]2(CCCc3cc(Cl)ccc32)CO4)n1C` (single isomer, unassigned) [Example 100559], the IC50 in test [1] (setting [3]) was 0.113 nM; in test [2] (setting [4]) it was 1030 nM.
Consider `COCC[C@@H]1[C@@H](C)C/C=C/[C@@](CN2CCN(C(C)C)CC2)(OC)[C@@H]2CC[C@H]2CN2C[C@@]3(CCCc4cc(Cl)ccc43)COc3ccc(cc32)C(=O)NS1(=O)=O` [Example 188, (1S,3′R,6′R,7′R,8′E,11′S,12′R)-6-chloro-7′-methoxy-12′-(2-methoxyethyl)-11′-methyl-7′-((4-(1-methylethyl)-1-piperazinyl)methyl)-3,4-dihydro-2H,15′H-spiro[naphthalene-1,22′-[20]oxa[13]thia[1,14]diazatetracyclo [14.7.2.0~3,6~.0~19,24~]pentacosa[8,16,18,24]tetraen]-15′-one 13′,13′-dioxide], for which the values for the IC50 in test [1] (setting [6]) and in test [2] (setting [7]) were 0.084 nM and 38 nM, respectively.
As to `CO[C@@]1(Cc2ncccc2C)/C=C/C[C@H](C)[C@@H](C)S(=O)(=O)NC(=O)c2ccc3c(c2)N(C[C@@H]2CC[C@H]21)C[C@@]1(CCCc2cc(Cl)ccc21)CO3` [Example 100542, (1S,3′R,6′R,7′S,8′E,11′S,12′R)-6-chloro-7′-methoxy-11′,12′-dimethyl-7′-((3-methyl-2-pyridinyl)methyl)-3,4-dihydro-2H,15′H-spiro[naphthalene-1,22′-[20]oxa[13]thia[1,14]diazatetracyclo [14.7.2.0~3,6~.0~19,24~]pentacosa[8,16,18,24]tetraen]-15′-one 13′,13′-dioxide], the half-maximal inhibitory concentration (IC50) in test [1] (setting [3]) came to 0.229 nM; in test [2] (setting [4]), 902 nM.
Taken in the same sequence, the figures for `CC[C@]1(CO)/C=C/C[C@H](C)[C@@H](C)S(=O)(=O)NC(=O)c2ccc3c(c2)N(C[C@@H]2CC[C@H]21)C[C@@]1(CCCc2cc(Cl)ccc21)CO3` (single isomer, unassigned) [Example 100605] were 3.25 nM and 7950 nM.
`CO[C@@]1(CN2CCc3[nH]nnc3C2)/C=C/C[C@H](C)[C@@H](C)S(=O)(=O)NC(=O)c2ccc3c(c2)N(C[C@@H]2CC[C@H]21)C[C@@]1(CCCc2cc(Cl)ccc21)CO3` [Example 205, (1S,3′R,6′R,7′S,8′E,11′S,12′R)-6-chloro-7′-methoxy-11′,12′-dimethyl-7′-(1,4,6,7-tetrahydro-5H-[1,2,3]triazolo[4,5-c]pyridin-5-ylmethyl)-3,4-dihydro-2H,15′H-spiro[naphthalene-1,22′-[20]oxa[13]thia[1,14]diazatetracyclo [14.7.2.0~3,6~.0~19,24~]pentacosa[8,16,18,24]tetraen]-15′-one 13′,13′-dioxide]: the figures for the IC50 in test [1] (setting [6]) and in test [2] (setting [7]) were 0.263 nM and 437 nM, respectively.
Consider `CO[C@@]1(C)/C=C/C[C@H](C)[C@@H](C)S(=O)(=O)NC(=O)c2ccc3c(c2)N(C[C@@H]2CC[C@H]21)C[C@@]1(CCCc2cc(Cl)ccc21)CO3` [Example 100014, (1S,3′R,6′R,7′S,8′E, 11′S, 12′R)-6-chloro-7′-methoxy-7′,11′,12′-trimethyl-3,4-dihydro-2H,15′H-spiro[naphthalene-1,22′-[20]oxa[13]thia[1,14]diazatetracyclo[14.7.2.0-3,6˜.0˜19,24˜]pentacosa[8,16,18,24]tetraen]-15′-one 13′,13′-dioxide], for which the values for the IC50 in test [1] and in test [2] (setting [4]) were 0.228 nM and 330 nM, respectively.
For `C[C@@H]1[C@@H](C)C/C=C/[C@@](O)(C#CCN2CCS(=O)(=O)CC2)[C@@H]2CC[C@H]2CN2C[C@@]3(CCCc4cc(Cl)ccc43)COc3ccc(cc32)C(=O)NS1(=O)=O` [Example 100388, (1S,3′R,6′R,7′S,8′E,11′S,12′R)-6-chloro-7′-(3-(1,1-dioxido-4-thiomorpholinyl)-1-propyn-1-yl)-7′-hydroxy-11′,12′-dimethyl-3,4-dihydro-2H,15′H-spiro[naphthalene-1,22′-[20]oxa[13]thia[1,14]diazatetracyclo [14.7.2.0~3,6~.0~19,24~]pentacosa[8,16,18,24]tetraen]-15′-one 13′,13′-dioxide], the IC50 in test [1] (setting [3]) turned out to be 1.17 nM; in test [2] (setting [5]) it was 2160 nM.
For `C[C@@H]1[C@@H](C)C/C=C/[C@](O)(C(C)(C)C#N)[C@@H]2CC[C@H]2CN2C[C@@]3(CCCc4cc(Cl)ccc43)COc3ccc(cc32)C(=O)NS1(=O)=O` [Example 100060, 2-((1S,3′R,6′R,7′R,8′E,11′S,12′R)-6-chloro-7′-hydroxy-11′,12′-dimethyl-13′,13′-dioxido-15′-oxo-3,4-dihydro-2H-spiro[naphthalene-1,22′-[20]oxa[13]thia[1,14]diazatetracyclo [14.7.2.0~3,6~.0~19,24~]pentacosa[8,16,18,24]tetraen]-7′-yl)-2-methylpropanenitrile], in that order: 4.01 nM and 5980 nM.
Regarding `CO[C@@H](C(=O)N(C)C)[C@]1(O)/C=C/C[C@H](C)[C@@H](C)S(=O)(=O)NC(=O)c2ccc3c(c2)N(C[C@@H]2CC[C@H]21)C[C@@]1(CCCc2cc(Cl)ccc21)CO3` [Example 100285, (2R)-2-((1S,3′R,6′R,7′S,8′E,11′S,12′R)-6-chloro-7′-hydroxy-11′,12′-dimethyl-13′,13′-dioxido-15′-oxo-3,4-dihydro-2H-spiro[naphthalene-1,22′-[20]oxa[13]thia[1,14]diazatetracyclo [14.7.2.0~3,6~.0~19,24~]pentacosa[8,16,18,24]tetraen]-7′-yl)-2-methoxy-N,N-dimethylethanamide], the half-inhibitory concentration (IC50) was determined as 0.241 nM in test [1] (setting [3]) and 642 nM in test [2] (setting [4]).
Taken in the same sequence, the figures for `C[C@@H]1[C@@H](C)C/C=C/[C@](O)(CCO)[C@@H]2CC[C@H]2CN2C[C@@]3(CCCc4cc(Cl)ccc43)COc3ccc(cc32)C(=O)NS1(=O)=O` [Example 100175, (1S,3′R,6′R,7′R,8′E,11′S,12′R)-6-chloro-7′-hydroxy-7′-(2-hydroxyethyl)-11′,12′-dimethyl-3,4-dihydro-2H,15′H-spiro[naphthalene-1,22′-[20]oxa[13]thia[1,14]diazatetracyclo [14.7.2.0~3,6~.0~19,24~]pentacosa[8,16,18,24]tetraen]-15′-one 13′,13′-dioxide] were 0.149 nM and 452 nM.
`COCC[C@@H]1[C@@H](C)C/C=C/[C@@](CN2CCN(C3COC3)CC2)(OC)[C@@H]2CC[C@H]2CN2C[C@@]3(CCCc4cc(Cl)ccc43)COc3ccc(cc32)C(=O)NS1(=O)=O` [Example 187, (1S,3′R,6′R,7′R,8′E,11′S,12′R)-6-chloro-7′-methoxy-12′-(2-methoxyethyl)-11′-methyl-7′-((4-(3-oxetanyl)-1-piperazinyl)methyl)-3,4-dihydro-2H,15′H-spiro[naphthalene-1,22′-[20]oxa[13]thia[1,14]diazatetracyclo [14.7.2.0~3,6~.0~19,24~]pentacosa[8,16,18,24]tetraen]-15′-one 13′,13′-dioxide]: the IC50 in test [1] (setting [6]) was determined as 0.066 nM; in test [2] (setting [7]) it was 43 nM.
As to `CO[C@]1(CCN2CCN(C)C(=O)C2)/C=C/C[C@H](C)[C@@H](C)S(=O)(=O)NC(=O)c2ccc3c(c2)N(C[C@@H]2CC[C@H]21)C[C@@]1(CCCc2cc(Cl)ccc21)CO3` [Example 100415, (1S,3′R,6′R,7′R,8′E,11′S,12′R)-6-chloro-7′-methoxy-11′,12′-dimethyl-7′-(2-(4-methyl-3-oxo-1-piperazinyl)ethyl)-3,4-dihydro-2H,15′H-spiro[naphthalene-1,22′-[20]oxa[13]thia[1,14]diazatetracyclo [14.7.2.0~3,6~.0~19,24~]pentacosa[8,16,18,24]tetraen]-15′-one 13′,13′-dioxide], the concentration for half-maximal inhibition (IC50) in test [1] (setting [3]) came out at 1.95 nM; in test [2] (setting [4]) it was 2280 nM.
For `C[C@@H]1[C@@H](C)CCC[C@](O)(C[C@@H]2CCCN(C)C2)[C@@H]2CC[C@H]2CN2C[C@@]3(CCCc4cc(Cl)ccc43)COc3ccc(cc32)C(=O)NS1(=O)=O` (single isomer, unassigned) [Example 100400], in that order: 0.838 nM and 1320 nM.

As usually defined, the IC50 is the concentration that inhibits the measured activity by half.
